In patent publication US8962602B2, “Anticancer steroidal lactones unsaturated in position 7 (8)” (Pharma Mar, S.A., priority 2010, dated 2015):
Where “and” joins values, the source holds several entries; their conditions need not be identical. Equal entries are not always repeated. Where two headings read alike, the source gives them in different places.

Key:
Test in all cases: Cytotoxicity assay, SRB colorimetric assay
Format in all cases: cell-based
A549 = conditions: for TGI / GI50: A549 lung carcinoma (NSCLC), 72 hours treatment; for TGI: total cell growth inhibition (cytostatic effect); for GI50 / CC50: Homo sapiens, A549, 72 h; for GI50: 50% cell growth inhibition; for CC50: read-out: LC50, A549 lung carcinoma (NSCLC), 72 hours treatment, 50% net cell killing (cytotoxic effect)
Source text: (§1) The aim of this assay is to evaluate the in vitro cytostatic (ability to delay or arrest tumor cell growth) or cytotoxic (ability to kill tumor cells) activity of the samples being tested.
(§2) A colorimetric assay, using sulforhodamine B (SRB) reaction has been adapted to provide a quantitative measurement of cell growth and viability (following the technique described by Skehan et al. J. Natl. Cancer Inst. 1990, 82, 1107-1112).
(§3) This form of assay employs SBS-standard 96-well cell culture microplates (Faircloth et al. Methods in Cell Science, 1988, 11(4), 201-205; Mosmann et al, Journal of Immunological Methods, 1983, 65(1-2), 55-63). All the cell lines used in this study were obtained from the American Type Culture Collection (ATCC) and derive from different types of human cancer.
(§4) Cells were maintained in Dulbecco's Modified Eagle Medium (DMEM) supplemented with 10% Fetal Bovine Serum (FBS), 2 mM L-glutamine, 100 U/mL penicillin and 100 U/mL streptomycin at 37° C., 5% CO2 and 98% humidity. For the experiments, cells were harvested from subconfluent cultures using trypsinization and resuspended in fresh medium before counting and plating.
(§5) Cells were seeded in 96 well microtiter plates, at 5×10^3 cells per well in aliquots of 150 μL, and allowed to attach to the plate surface for 18 hours (overnight) in drug free medium. After that, one control (untreated) plate of each cell line was fixed (as described below) and used for time zero reference value. Culture plates were then treated with test compounds (50 μL aliquots of 4× stock solutions in complete culture medium plus 4% DMSO) using ten serial dilutions (concentrations ranging from 10 to 0.00262 μg/mL) and triplicate cultures (1% final concentration of DMSO). After 72 hours treatment, the antitumor effect was measured by using the SRB methodology: Briefly, cells were washed twice with PBS, fixed for 15 min in 1% glutaraldehyde solution at room temperature, rinsed twice in PBS, and stained in 0.4% SRB solution for 30 min at room temperature. Cells were then rinsed several times with 1% acetic acid solution and air-dried at room temperature. SRB was then extracted in 10 mM trizma base solution and the absorbance measured in an automated spectrophotometric plate reader at 490 nm. Effects on cell growth and survival were estimated by applying the NCl algorithm (Boyd M R and Paull K D. Drug Dev. Res. 1995, 34, 91-104).
(§6) Using the mean±SD of triplicate cultures, a dose-response curve was automatically generated using nonlinear regression analysis. Three reference parameters were calculated (NCI algorithm) by automatic interpolation: GI50=compound concentration that produces 50% cell growth inhibition, as compared to control cultures; TGI=total cell growth inhibition (cytostatic effect), as compared to control cultures, and LC50=compound concentration that produces 50% net cell killing (cytotoxic effect).

MDA-MB-231 = conditions: for GI50: 50% cell growth inhibition; for TGI: total cell growth inhibition (cytostatic effect)
Source text: as §1, §2, §3, §4, §5, §6

HT29 = conditions: for TGI: total cell growth inhibition (cytostatic effect); for GI50: 50% cell growth inhibition
Source text: as §1, §2, §3, §4, §5, §6

[1] = Homo sapiens, MDA-MB-231, 72 h, MDA-MB-231 breast adenocarcinoma, 72 hours treatment
[2] = Homo sapiens, MDA-MB-231, 72 h, read-out: LC50, MDA-MB-231 breast adenocarcinoma, 72 hours treatment, 50% net cell killing (cytotoxic effect)
[3] = MDA-MB-231 breast adenocarcinoma, 72 hours treatment
[4] = HT29 colorectal adenocarcinoma, 72 hours treatment
[5] = Homo sapiens, HT-29, 72 h, HT29 colorectal adenocarcinoma, 72 hours treatment
[6] = Homo sapiens, HT-29, 72 h, read-out: LC50, HT29 colorectal adenocarcinoma, 72 hours treatment, 50% net cell killing (cytotoxic effect)

SMILES	TGI (A549) [Molar]	GI50 (A549) [nM]	CC50 (A549) [nM]	GI50 (MDA-MB-231; [1]) [nM]	CC50 (MDA-MB-231; [2]) [nM]	TGI (MDA-MB-231; [3])	TGI (HT29; [4])	GI50 (HT29; [5]) [nM]	LC50 (50% net cell killing) (HT29; [6]) [nM]	GI50 (MDA-MB-231; [3]) [nM]	CC50 (MDA-MB-231; read-out: LC50, MDA-MB-231 breast adenocarcinoma, 72 hours treatment, 50% net cell killing (cytotoxic effect)) [nM]	GI50 (HT29; [4]) [nM]	LC50 (50% net cell killing) (HT29; read-out: LC50, HT29 colorectal adenocarcinoma, 72 hours treatment, 50% net cell killing (cytotoxic effect)) [nM]
CO[C@H]1[C@H]2O[C@H]2[C@]2(C=O)[C@H]3CC[C@]4(C)[C@@H](c5ccc(=O)oc5)C(Cl)(Cl)C[C@]4(O)C3=CC[C@H]2C1(C)C [Aegomycin A]	4.39E−9	3.82	5.35	19.1	61.1	3.63E−8 Molar	3.25E−8 Molar	10.5	115	–	–	–	–
CO[C@H]1[C@H]2O[C@H]2[C@]2(CO)[C@H]3CC[C@]4(C)[C@@H](c5ccc(=O)oc5)C(Cl)(Cl)C[C@]4(O)C3=CC[C@H]2C1(C)C [Aegomycin B]	7.61E−9	5.9	11.4	76.1	381	1.67E−7 Molar	2.28E−7 Molar	30.4	3040	–	–	–	–
CC1(C)C(=O)C=C[C@]2(C)[C@H]3CC[C@]4(C)[C@@H](c5ccc(=O)oc5)C(Cl)(Cl)C[C@]4(O)C3=CC[C@@H]12 [Aegomycin C]	1.72E−8	7.54	41.9	62.8	691	1.97E−7 Molar	1.05E−7 Molar	9.84	> 20900	–	–	–	–
CO[C@H]1C=C[C@]2(C)[C@H]3C[C@@H](O)[C@]4(C)[C@@H](c5ccc(=O)oc5)C(Cl)(Cl)C[C@]4(O)C3=CC[C@H]2C1(C)C [Aegomycin D]	1.28E−8	8.64	18.3	64.8	173	9.81E−8 Molar	1.35E−7 Molar	31.4	1450	–	–	–	–
CO[C@H]1C=C[C@]2(C)[C@H]3CC[C@]4(C)[C@@H](c5ccc(=O)oc5)C(Cl)(Cl)C[C@]4(O)C3=CC[C@H]2C1(C)C [Aegomycin E]	5.67E−8	42.6	75	197	750	3.65E−7 Molar	4.86E−7 Molar	118	5270	–	–	–	–
CC1(C)C(=O)C=C[C@]2(C)[C@H]3CC[C@]4(C)[C@@H](c5ccc(=O)oc5)[C@@H](Cl)C[C@]4(O)C3=CC[C@@H]12 [Aegomycin F]	–	–	–	88	948	2.71E−7 Molar and 2.03E−7 Molar	4.06E−7 Molar and 2.03E−7 Molar	65.5	3160	81.1	608	36.5	4860
CO[C@H]1C=C[C@]2(C)[C@H]3CC[C@]4(C)[C@@H](c5ccc(=O)oc5)[C@@H](Cl)C[C@]4(O)C3=CC[C@H]2C1(C)C [Aegomycin G]	6.32E−8	39.2	111	170	1290	4.36E−7 Molar	6.75E−7 Molar	146	3920	–	–	–	–
